In one data set the test system is HeLa. The data set is described as follows: Induction of morphological changes in HPV18 E6 transformed human HeLa cells assessed as cell shrinkage at 80 to 120 uM after 24 hrs. The class given is functional, cell-based.
Data set [1] has as its system 3Y1. The data set is described as follows: Antiproliferative activity in rat 3Y1 cells transfected with pBLAST E6-16 at 40 uM after 24 to 96 hrs. The class given is functional, cell-based.
Data set [2] is described as follows: Inhibition of HPV E6 protein interaction with shank1 (unknown origin).
Data set [3] is described as follows: Inhibition of HPV E6 protein interaction with PSD95 PDZ domain1 (unknown origin).
A short description of data set [4]: Cytotoxicity against HPV E6 transformed human SiHa cells assessed as cell viability at 60 uM treated 24 hrs post plating by WST-1 assay relative to control. The class given is functional. The following applies: read-out: Activity.
A short description of data set [5]: Antiproliferative activity in rat 3Y1 cells transfected with pBLAST at 40 uM after 24 to 96 hrs. It is filed as cell-based. The following applies: 3y1, 40 µM.
Data set [6] in a line: Cytotoxicity against HPV negative human C33A assessed as cell viability at 60 uM treated 24 hrs post plating by WST-1 assay relative to control. Also on record: species or system C-33-A. The following applies: C33A cells (HPV negative), read-out: Activity.
Data set [7] can be described thus: Downregulation of E6 protein expression in HPV18 E6 transformed human HeLa cells at 60 to 120 uM after 24 hrs by Western blot method. It is filed as functional, cell-based.
Data set [8] can be described thus: Upregulation of p53 expression in HPV18 E6 transformed human HeLa cells at 80 to 120 uM after 24 hrs by immunocytochemical analysis relative to control. It is filed as functional, cell-based.
Data set [9] can be described thus: Inhibition of HPV E6 protein interaction with Tip1 (unknown origin).
A short description of data set [10]: Cytotoxicity against HPV E6 transformed human HeLa cells assessed as cell viability at 60 uM treated 24 hrs post plating by WST-1 assay relative to control. The following applies: read-out: Activity. It is filed as functional.
In data set [11] the test system is 3Y1. The data set is described as follows: Antimigratory activity in rat 3Y1 cells transfected with pBLAST E6-16 at 40 uM after 24 hrs. The class given is functional, cell-based.
The nature of data set [12]: Inhibition of HPV E6 protein interaction with PSD95 PDZ domain2 (unknown origin).
Data set [13] in a line: Inhibition of HPV E6 protein interaction with MAGI-1 PDZ domain1 (unknown origin).
A short description of data set [14]: Inhibition of HPV E6 protein interaction with PSD95 PDZ domain3 (unknown origin).

From ChEMBL document CHEMBL3879889, “Compositions and methods for treating cancer” (2009) come the findings set out here.

Each structure is given as a SMILES string. The source made the active and inactive calls. The rule behind the calls is not given here. A value given as a limit tells only on which side of the number the result lay.

In the case of `CCc1cccc2c(C(c3ccccc3OCC(=O)O)c3c[nH]c4c(CC)cccc34)c[nH]c12`, the result (in the data set with HeLa; with 3Y1 [1]; in data set [7]; in data set [8]; in the data set on 3Y1 [11]) was Active. The IC50 in data set [2] is > 250 µM; in [3] it was > 250 µM; in data set [9], > 250 µM; in [12], > 250 µM; in [13] it was 86.9 µM; in [14], > 250 µM. In addition, the viability at 60 µM in data set [4] amounted to 74.3%; in data set [10], 70.1%. In addition, the Activity result in data set [5] is reported as “Non-Toxic”. For the same compound, in data set [6], the viability at 24 h, 60 µM was 104%.
